Results reported in ChEMBL document CHEMBL1147873, “Synthesis and biological evaluation of novel analogues of dictyostatin” (Bioorg Med Chem Lett, 2007).

What was measured:
Type in all cases: functional, cell-based
ASPC1 = experiment: Cytotoxicity against human AsPC1 cells after 72 hrs by MTT assay; conditions: ASPC1, 72 h
DLD-1 = experiment: Cytotoxicity against human DLD1 cells after 72 hrs by MTT assay; conditions: DLD-1, 72 h
PANC-1 = experiment: Cytotoxicity against human PANC1 cells after 72 hrs by MTT assay; conditions: PANC-1, 72 h
NCI = experiment: Cytotoxicity against human Taxol-adriamycin-resistant NCI cells after 72 hrs by MTT assay

Row | SMILES | IC50 (ASPC1) [µM] | IC50 (DLD-1) [µM] | IC50 (PANC-1) [µM] | IC50 (NCI) [µM]
1 | C=C/C=C\[C@H](C)[C@@H]1OC(=O)/C=C\C=C\[C@@H](C)[C@@H](O)C[C@H](O)/C=C\[C@H](C)[C@H](O)[C@@H](C)CCCC[C@@H](O)[C@@H]1C | 0.17 | 0.085 | 0.13 | 1.5
2 | C=C/C=C\[C@H](C)[C@@H]1OC(=O)/C=C\C=C\[C@@H](C)[C@@H](O)C[C@@H](O)/C=C\[C@H](C)[C@H](O)[C@@H](C)C[C@@H](C)CC[C@@H](O)[C@@H]1C | 0.41 | 0.15 | 0.24 | 1.1
3 | C=C/C=C\[C@H](C)[C@@H]1OC(=O)/C=C\C=C\[C@@H](C)[C@@H](O)C[C@@H](O)/C=C\[C@H](C)[C@H](O)[C@@H](C)CCCC[C@@H](O)[C@@H]1C | 2.1 | 0.79 | 1.5 | 2.1
4 | C=C/C=C\[C@H](C)[C@@H]1OC(=O)/C=C\C=C\[C@@H](C)[C@@H](O)C[C@H](OC)/C=C\[C@H](C)[C@H](O)[C@@H](C)C[C@@H](C)CC[C@@H](O)[C@@H]1C | 0.031 | 0.0024 | 0.0097 | 0.0082
5 | C=C/C=C\[C@H](C)[C@@H]1OC(=O)/C=C\C=C\[C@@H](C)[C@@H](O)C[C@H](O)/C=C\[C@H](C)[C@H](O)[C@@H](C)C[C@@H](C)CC[C@@H](O)[C@@H]1C [DICTYOSTATIN] | – | – | – | 0.0098
6 | C=C/C=C\[C@H](C)[C@H](OC(N)=O)[C@@H](C)[C@H](O)[C@@H](C)C/C(C)=C\[C@H](C)[C@@H](O)[C@@H](C)/C=C\[C@@H](O)C[C@@H]1OC(=O)[C@H](C)[C@@H](O)[C@H]1C [DISERMOLIDE] | – | – | – | 0.16
